# Reference: patent publication US10799478B2, “Treatment of androgen deprivation therapy associated symptoms” (priority 2014, dated 2020)
# Key:
# CD [Crl:CD (SD)] rats = experiment: Four Week Oral Toxicity Study in Rats; type: in vivo, rat; settings: for decrease in albumin / decrease in total protein / increase in alkaline phosphatase: females
# Method: (§1) Three treatment groups of 10 male and 10 female CD® [Crl:CD® (SD)] rats are administered the test article at respective dose levels of 15, 150, and 1500 mg/kg/day. […] The test article or vehicle is administered to all groups via oral gavage, once a day for 28 consecutive days, at a dose volume of 15 mL/kg. Additionally, three groups of 18 animals/sex/group serves as toxicokinetic (TK) animals and receives the test article in the same manner and dose volume as the main study groups at respective dose levels of 15, 150, and 1500 mg/kg/day. One additional group of three animals/sex serves as the toxicokinetic control and receives the vehicle in the same manner and dose volume as the treated groups.
# (§2) Observations for morbidity, mortality, injury, and the availability of food and water are conducted twice daily for all animals. Observations for clinical signs are conducted weekly for main study animals only. Body weights were measured and recorded weekly for all animals and food consumption is measured and recorded weekly for main study animals. Ophthalmoscopic examinations are conducted pretest on all animals and prior to terminal necropsy for main study animals only. Blood samples for clinical pathology evaluations are collected from all main study animals at necropsy. Urine samples are collected on the last day of dosing. Blood samples for determination of the plasma concentrations of the test article are collected from TK animals at designated time points on Days 1 and 28. After the final blood collection, the TK animals are euthanized and the carcasses are discarded without further evaluation. Liver samples for hepatic enzyme induction analysis are collected at terminal necropsy from main study animals. At study termination, necropsy examinations are performed, organ weights are recorded, and prostate and seminal vesicle tissues are microscopically examined. Additional microscopic examination is performed on the left testis from the first five male rats/group at necropsy.
# [1] = Four Week Oral Toxicity Study in Rats; type: in vivo, rat; settings: CD [Crl:CD (SD)], rat
# Method: as §1, §2
# human Androgen receptor = biological target: T1, human Androgen receptor (Homo sapiens, UniProt P10275); experiment: hAR binding affinity (Ki); settings: comparison with R1881
# T1 sequence (P10275 1-920): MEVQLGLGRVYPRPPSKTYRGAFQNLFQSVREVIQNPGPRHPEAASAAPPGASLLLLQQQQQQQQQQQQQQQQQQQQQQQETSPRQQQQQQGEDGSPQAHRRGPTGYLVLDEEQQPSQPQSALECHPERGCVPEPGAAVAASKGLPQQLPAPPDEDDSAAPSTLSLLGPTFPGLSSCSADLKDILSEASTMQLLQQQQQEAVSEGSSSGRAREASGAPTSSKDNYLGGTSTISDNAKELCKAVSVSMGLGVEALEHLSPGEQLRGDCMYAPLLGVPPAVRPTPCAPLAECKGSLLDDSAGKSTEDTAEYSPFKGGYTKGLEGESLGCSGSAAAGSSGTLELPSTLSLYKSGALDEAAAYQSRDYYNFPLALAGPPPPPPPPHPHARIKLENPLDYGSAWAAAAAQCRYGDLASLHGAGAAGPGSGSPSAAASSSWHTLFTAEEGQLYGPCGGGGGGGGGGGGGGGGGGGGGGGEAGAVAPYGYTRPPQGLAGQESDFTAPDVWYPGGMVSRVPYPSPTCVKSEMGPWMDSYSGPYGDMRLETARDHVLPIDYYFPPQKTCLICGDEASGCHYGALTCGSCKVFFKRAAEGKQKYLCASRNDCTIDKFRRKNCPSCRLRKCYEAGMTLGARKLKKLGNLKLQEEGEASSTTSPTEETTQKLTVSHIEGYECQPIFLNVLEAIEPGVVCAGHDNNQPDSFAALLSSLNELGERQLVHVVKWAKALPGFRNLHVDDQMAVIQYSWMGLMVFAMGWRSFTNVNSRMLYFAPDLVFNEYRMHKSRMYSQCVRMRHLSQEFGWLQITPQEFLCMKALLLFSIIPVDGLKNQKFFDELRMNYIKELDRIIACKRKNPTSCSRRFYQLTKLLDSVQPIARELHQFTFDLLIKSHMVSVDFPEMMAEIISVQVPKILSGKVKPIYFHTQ
# dogs = experiment: 6 month treatment of dogs (Table 10); type: in vivo, dog; settings: 6 months
# beagle dogs = experiment: 52 Week Toxicity and Toxicokinetic Study in Dogs; type: in vivo, dog
# Method: (§3) Male and female purebred beagle dogs are assigned to groups, and doses are administered according to Table 9 via oral capsules containing 1 ml/kg of 0 [1% (w/v) carboxymethylcellulose sodium (low viscosity/25-50 cps), 0.5% (w/v) sodium lauryl sulfate and 0.05% (v/v) Dow Corning® Antifoam 1510-US in reverse osmosis water] […] All animals receive the same number of capsules, and Group 1 animals receive capsules containing vehicle control article only. Three animals per sex from Groups 1 and 4 are designated as recovery animals.
# (§4) Assessment of toxicity is based on mortality, clinical signs, body weight and body weight change, food consumption, ophthalmic and neurologic evaluations, ECG measurements, hormone analysis (testosterone, progesterone, luteinizing hormone, and follicle stimulating hormone), semen evaluation (ejaculate volume and sperm number, density, morphology, and motility), and clinical and anatomic pathology. Blood samples are collected for exploratory metabolite analysis and toxicokinetic evaluations.
# [2] = 52 Week Toxicity and Toxicokinetic Study in Dogs; type: in vivo, dog; settings: beagle, dog, in vivo; for Cmax / AUC(0-t): po
# Method: as §3, §4
smiles,measurement,setting,value
"CC(C)OC(=O)N[C@H]1Cc2c(n(Cc3ccccn3)c3ccc(C#N)cc23)C1 (single isomer, unassigned) [Example 1]",systemic exposure (AUC0-24 hr) increase with dose,"CD [Crl:CD (SD)] rats; 15, 150, 1500 mg/kg/day oral gavage",less-than-dose-proportional
same,unscheduled deaths,"CD [Crl:CD (SD)] rats; 15-1500 mg/kg/day, 28 days",no unscheduled deaths
same,decrease in albumin,CD [Crl:CD (SD)] rats; 150 mg/kg/day,12%
same,decrease in total protein,CD [Crl:CD (SD)] rats; 150 mg/kg/day,9%
same,increase in alkaline phosphatase,CD [Crl:CD (SD)] rats; 150 mg/kg/day,1.33 fold
same,decrease in albumin,CD [Crl:CD (SD)] rats; 1500 mg/kg/day,12%
same,decrease in total protein,CD [Crl:CD (SD)] rats; 1500 mg/kg/day,10%
same,increase in alkaline phosphatase,CD [Crl:CD (SD)] rats; 1500 mg/kg/day,1.45 fold
same,hepatic microsomal enzyme induction,CD [Crl:CD (SD)] rats; following 28 days of dosing,no evidence
same,NOAEL at 28 days,"[1]; both sexes, in vivo, 4 weeks oral gavage, highest dose administered",1500 mg/kg/day
same,AUC(0-t),"[1]; female, plasma, oral, females, 1500 mg/kg/day, read-out: Mean steady-state systemic exposure (AUC0-24 hr)",217000 ng·h/mL
same,biochemical binding affinity to the human Androgen receptor,human Androgen receptor,only modestly reduced
same,Prostate weight (mean % decrease),dogs; 3 mg/kg/day,↓ 63%
same,Prostate weight (mean % decrease),dogs; 30 mg/kg/day,↓ 66%
same,Prostate weight (mean % decrease),dogs; 300 mg/kg/day,↓ 75%
same,survival until the scheduled sacrifice,"beagle dogs; 3, 10, 100 mg/kg",All animals survived
same,Accumulation after multiple dosing,"beagle dogs; dogs, 3 to 100 mg/kg",observed
same,NOAEL at 52 weeks,"[2]; both sexes, oral, daily capsule, 52 weeks",100 mg/kg
same,Cmax,"[2]; female, females, 100 mg/kg, after 361 days of dosing",1880 ng/mL
same,AUC(0-t),"[2]; female, females, 100 mg/kg, after 361 days of dosing, read-out: AUC0-24 h",31500 ng·h/mL
same,AUC(0-t),"[2]; male, dogs, 12 months, 3 mg/kg/day, read-out: Male group mean AUC0-24 hr near termination",3620 ng·h/mL
same,Cmax,"[2]; male, males, 100 mg/kg, after 361 days of dosing",1500 ng/mL
